Measured values reported in ChEMBL document CHEMBL1146350, “Synthesis of some new bioactive 3-amino-2-mercapto-5,6,7,8-tetrahydro[1]benzothieno[2,3-d]pyrimidin-4(3H)-one derivatives” (2007).
Converted amounts (≈) assume the structure as drawn. The source made the active and inactive calls. The rule behind the calls is not given here.

Legend:
Escherichia coli = assay: Antibacterial activity against Escherichia coli ATCC 25922 by disc diffusion method; format: functional; conditions: for MIC: Escherichia coli, ATCC 25922
Pseudomonas aeruginosa = assay: Antibacterial activity against Pseudomonas aeruginosa ATCC 27853 by disc diffusion method; format: functional; conditions: for MIC: Pseudomonas aeruginosa, ATCC 27853
Staphylococcus aureus = assay: Antibacterial activity against Staphylococcus aureus ATCC 25923 by disc diffusion method; format: functional
Klebsiella pneumoniae = assay: Antibacterial activity against Klebsiella pneumoniae by disc diffusion method; format: functional; conditions: for MIC: Klebsiella pneumoniae
Talaromyces marneffei = assay: Antifungal activity against Penicillium marneffei by serial plate dilution method; format: functional; conditions: for MIC: Talaromyces marneffei
Aspergillus flavus = assay: Antifungal activity against Aspergillus flavus NCIM 524 by serial plate dilution method; format: functional; conditions: for MIC: Aspergillus flavus, NCIM 524
Aspergillus fumigatus = assay: Antifungal activity against Aspergillus fumigatus NCIM 902 by serial plate dilution method; format: functional; conditions: for MIC: Aspergillus fumigatus, NCIM 902
Trichophyton benhamiae = assay: Antifungal activity against Trichophyton mentagrophytes by serial plate dilution method; format: functional, Arthroderma benhamiae; conditions: for MIC: Trichophyton benhamiae
Rattus norvegicus = assay: Antiinflammatory activity in Wister Albino rat assessed as inhibition of paw edema at 50 mg/kg, po after 3hrs; format: functional
Mus musculus [1] = assay: Anticonvulsant activity in Swiss Albino mouse assessed as duration of seizure at 2 mg/kg, po by PTZ induced seizure test; format: functional
Mus musculus [2] = assay: Anticonvulsant activity in Swiss Albino mouse assessed as duration of seizure at 50 mg/kg, po by PTZ induced seizure test; format: functional
Mus musculus [3] = assay: Anticonvulsant activity in Swiss Albino mouse assessed as mortality at 50 mg/kg, po by PTZ induced seizure test; format: functional, organism-based; parameters: dose 50 mg/kg
[4] = Staphylococcus aureus, ATCC 25923, read-out: MIC

Compound | inhibition zone (IZ) (Escherichia coli) | MIC (Escherichia coli) | inhibition zone (IZ) (Pseudomonas aeruginosa) | MIC (Pseudomonas aeruginosa) | inhibition zone (IZ) (Staphylococcus aureus) | MIC (Staphylococcus aureus; [4]) | inhibition zone (IZ) (Klebsiella pneumoniae) | MIC (Klebsiella pneumoniae) | inhibition zone (IZ) (Talaromyces marneffei) | MIC (Talaromyces marneffei) | inhibition zone (IZ) (Aspergillus flavus) | MIC (Aspergillus flavus) | inhibition zone (IZ) (Aspergillus fumigatus) | MIC (Aspergillus fumigatus) | inhibition zone (IZ) (Trichophyton benhamiae) | MIC (Trichophyton benhamiae) | inhibition in vivo at 50 mg/kg (Rattus norvegicus) | Activity (Mus musculus [1]) | Activity (Mus musculus [2]) | Activity (Mus musculus [3]) | further results
Nn1c(SCC(=O)c2ccnc(Cl)c2)nc2sc3c(c2c1=O)CCCC3 | 8 mm | > 100 µg/mL | 8 mm | > 100 µg/mL | 10 mm | 80 µg/mL (≈ 197 µM) | 10 mm | 80 µg/mL (≈ 197 µM) | 6 mm | > 100 µg/mL | 6 mm | > 100 µg/mL | 10 mm | 80 µg/mL (≈ 197 µM) | 8 mm | > 100 µg/mL |  |  |  |  | 
O=c1c2c3c(sc2nc2sc(Cc4ccccc4)nn12)CCCC3 | 10 mm | 80 µg/mL (≈ 226 µM) | 10 mm | 80 µg/mL (≈ 226 µM) | 8 mm | > 100 µg/mL | 8 mm | > 100 µg/mL | 6 mm | > 100 µg/mL | 10 mm | 80 µg/mL (≈ 226 µM) | 6 mm | > 100 µg/mL | 6 mm | > 100 µg/mL |  |  |  |  | 
O=c1c2c3c(sc2nc2sc(-c4ccccc4)nn12)CCCC3 | 9 mm | 100 µg/mL (≈ 295 µM) | 18 mm | 60 µg/mL (≈ 177 µM) | 18 mm | 60 µg/mL (≈ 177 µM) | 16 mm | 60 µg/mL (≈ 177 µM) | 16 mm | 12.5 µg/mL (≈ 36.8 µM) | 7 mm | > 100 µg/mL | 18 mm | 12.5 µg/mL (≈ 36.8 µM) | 7 mm | > 100 µg/mL | 24.4% | 58 s | 65 s | inactive | 
O=c1c2c3c(sc2nc2sc(CCl)nn12)CCCC3 |  |  |  |  |  |  |  |  |  |  |  |  |  |  |  |  |  | 70 s | 450 s | inactive | 
O=c1c2c3c(sc2nc2sc(-c4cc(Cl)cc(Cl)c4)nn12)CCCC3 | 8 mm | > 100 µg/mL | 8 mm | > 100 µg/mL | 8 mm | > 100 µg/mL | 6 mm | > 100 µg/mL | 5 mm | > 100 µg/mL | 6 mm | > 100 µg/mL | 5 mm | > 100 µg/mL | 6 mm | > 100 µg/mL |  |  |  |  | 
O=c1c2c3c(sc2nc2sc(=S)[nH]n12)CCCC3 |  |  |  |  |  |  |  |  |  |  |  |  |  |  |  |  | 7.69% | 56 s | 39 s | inactive | 
Nn1c(SCC(=O)c2ccccc2)nc2sc3c(c2c1=O)CCCC3 | 8 mm | > 100 µg/mL | 8 mm | > 100 µg/mL | 18 mm | 12.5 µg/mL (≈ 33.6 µM) | 8 mm | > 100 µg/mL | 6 mm | > 100 µg/mL | 10 mm | 80 µg/mL (≈ 215 µM) | 8 mm | > 100 µg/mL | 8 mm | > 100 µg/mL | 4.44% |  |  |  | 
Nn1c(SCC(=O)c2cc3ccccc3oc2=O)nc2sc3c(c2c1=O)CCCC3 | 18 mm | 12.5 µg/mL (≈ 28.4 µM) | 8 mm | > 100 µg/mL | 22 mm | 6.25 µg/mL (≈ 14.2 µM) | 22 mm | < 6.25 µg/mL | 6 mm | > 100 µg/mL | 12 mm | 80 µg/mL (≈ 182 µM) | 8 mm | > 100 µg/mL | 8 mm | > 100 µg/mL | 6.67% | 56 s | 30 s | inactive | 
CCc1nn2c(=O)c3c4c(sc3nc2s1)CCCC4 | 10 mm | 80 µg/mL (≈ 275 µM) | 18 mm | 10 µg/mL (≈ 34.3 µM) | 8 mm | > 100 µg/mL | 22 mm | 10 µg/mL (≈ 34.3 µM) | 6 mm | > 100 µg/mL | 8 mm | > 100 µg/mL | 6 mm | > 100 µg/mL | 6 mm | > 100 µg/mL | 51.1% | 110 s | 185 s | inactive | 
O=c1c2c3c(sc2nc2sc(-c4ccc([N+](=O)[O-])cc4)nn12)CCCC3 | 8 mm | > 100 µg/mL | 9 mm | 100 µg/mL (≈ 260 µM) | 8 mm | > 100 µg/mL | 20 mm | 10 µg/mL (≈ 26 µM) | 6 mm | > 100 µg/mL | 10 mm | 80 µg/mL (≈ 208 µM) | 5 mm | > 100 µg/mL | 6 mm | > 100 µg/mL | 48.9% | 56 s | 40 s | inactive | 
OC(Cn1cncn1)(Cn1cncn1)c1ccc(F)cc1F [FLUCONAZOLE] |  |  |  |  |  |  |  |  | 21 mm | < 6.25 µg/mL | 18 mm | < 6.25 µg/mL | 21 mm | < 6.25 µg/mL | 19 mm | < 6.25 µg/mL |  |  |  |  | 
Nn1c(SCC(=O)c2ccc(Cl)cc2)nc2sc3c(c2c1=O)CCCC3 | 8 mm | > 100 µg/mL | 18 mm | 12.5 µg/mL (≈ 30.8 µM) | 8 mm | > 100 µg/mL | 6 mm | > 100 µg/mL | 6 mm | > 100 µg/mL | 6 mm | > 100 µg/mL | 8 mm | > 100 µg/mL | 8 mm | > 100 µg/mL |  | 400 s | 255 s | inactive | 
CN[C@@H]1[C@H](O[C@H]2[C@H](O[C@H]3[C@H](O)[C@@H](O)[C@H](N=C(N)N)[C@@H](O)[C@@H]3N=C(N)N)O[C@@H](C)[C@]2(O)C=O)O[C@@H](CO)[C@H](O)[C@H]1O (stereo in doubt) [STREPTOMYCIN] | 20 mm | < 6.25 µg/mL | 24 mm | < 6.25 µg/mL | 21 mm |  | 24 mm | < 6.25 µg/mL |  |  |  |  |  |  |  |  |  |  |  |  | MIC (Staphylococcus aureus): <6.25 ug/sq.cm
Nn1c(SCC(=O)c2ccc(O)c(O)c2)nc2sc3c(c2c1=O)CCCC3 | 10 mm | 80 µg/mL (≈ 198 µM) | 16 mm | 60 µg/mL (≈ 149 µM) | 16 mm | 60 µg/mL (≈ 149 µM) | 10 mm | 80 µg/mL (≈ 198 µM) | 6 mm | > 100 µg/mL | 6 mm | > 100 µg/mL | 8 mm | > 100 µg/mL | 8 mm | > 100 µg/mL |  | 62 s | 270 s | inactive | 
Cc1cccc(-c2nn3c(=O)c4c5c(sc4nc3s2)CCCC5)c1 | 8 mm | > 100 µg/mL | 20 mm | 10 µg/mL (≈ 28.3 µM) | 20 mm | 10 µg/mL (≈ 28.3 µM) | 10 mm | 80 µg/mL (≈ 226 µM) | 18 mm | 12.5 µg/mL (≈ 35.4 µM) | 6 mm | > 100 µg/mL | 18 mm | 12.5 µg/mL (≈ 35.4 µM) | 4 mm | > 100 µg/mL | 51.1% | 51 s | 220 s | inactive | 
CCCc1nn2c(=O)c3c4c(sc3nc2s1)CCCC4 | 18 mm | 10 µg/mL (≈ 32.7 µM) | 22 mm | 10 µg/mL (≈ 32.7 µM) | 20 mm | 10 µg/mL (≈ 32.7 µM) | 26 mm | 6.25 µg/mL (≈ 20.5 µM) | 19 mm | 12.5 µg/mL (≈ 40.9 µM) | 28 mm | < 6.25 µg/mL | 26 mm | < 6.25 µg/mL | 6 mm | > 100 µg/mL | 30.8% | 73 s | 75 s | inactive | 
COc1ccc(C(=O)CSc2nc3sc4c(c3c(=O)n2N)CCCC4)cc1 | 8 mm | > 100 µg/mL | 8 mm | > 100 µg/mL | 8 mm | > 100 µg/mL | 18 mm | 12.5 µg/mL (≈ 31.1 µM) | 8 mm | > 100 µg/mL | 12 mm | 80 µg/mL (≈ 199 µM) | 16 mm | 12.5 µg/mL (≈ 31.1 µM) | 4 mm | > 100 µg/mL |  | 41 s | 450 s | inactive | 
